The target of one test is Ba/F3 EGFR-Del19/T790M (Homo sapiens, UniProt P00533, T790M, cells depend on it, form not given). As to the kind of experiment: Ba/F3 viability assay (CellTiter-Glo), DT. The test is classed as cell-based. The following applies: anti-proliferation, read-out: BaF3 DT IC50. Summed up:
(§1)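 Cells are exposed to test compounds, and viability is then read to gauge inhibition of proliferation.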

The target of test [1] is Ba/F3 EGFR-Del19/T790M/C797S (Homo sapiens, UniProt P00533, T790M/C797S, cells depend on it, form not given). As to the kind of experiment: Ba/F3 viability assay (CellTiter-Glo), DTC. The following applies: anti-proliferation, read-out: BaF3 DTC IC50. The test is classed as cell-based. Summed up: as §1
Another test concerns the target EGFR^L858R (Homo sapiens, UniProt P00533, L858R). As to the kind of experiment: in vitro kinase assay (HTRF KinEASE-TK kit), L. The test is classed as biochemical. Conditions: kinase inhibition. From the text: (§2) Assays using an in vitro kinase assay kit (HTRF KinEASE-TK kit) can be used to study the inhibitory activity of compounds described herein with respect to EGFR mutants such as EGFR^L858R, EGFR^L58R/T790M, and EGFR^L858R/T790M/C^797S.

A further test concerns the target EGFR^L858R/T790M/C^797S (Homo sapiens, UniProt P00533, C797S/L858R/T790M). As to the kind of experiment: in vitro kinase assay (HTRF KinEASE-TK kit), LTC. The test is classed as biochemical. The following applies: kinase inhibition.
Description: as §2

The next test has as its target Ba/F3 EGFR-Del19/C797S (Homo sapiens, UniProt P00533, C797S, cells depend on it, form not given). As to the kind of experiment: Ba/F3 viability assay (CellTiter-Glo), DC. The test is classed as cell-based. The following applies: anti-proliferation, read-out: BaF3 DC IC50. The procedure, abridged: as §1
Another test addresses EGFR^L58R/T790M (Homo sapiens, UniProt P00533, L858R/T790M). As to the kind of experiment: in vitro kinase assay (HTRF KinEASE-TK kit), LT. The test is classed as biochemical. The following applies: kinase inhibition.
Description: as §2

A further test concerns Ba/F3 Parental. As to the kind of experiment: Ba/F3 viability assay (CellTiter-Glo), parental. Conditions: Mus musculus, BaF3, anti-proliferation. The class given is cell-based. Summed up: as §1

Structures are written as SMILES.

Chain of Ba/F3 EGFR-Del19/C797S (P00533 with tags, fused parts or gaps DEL746-750/C797S, form open): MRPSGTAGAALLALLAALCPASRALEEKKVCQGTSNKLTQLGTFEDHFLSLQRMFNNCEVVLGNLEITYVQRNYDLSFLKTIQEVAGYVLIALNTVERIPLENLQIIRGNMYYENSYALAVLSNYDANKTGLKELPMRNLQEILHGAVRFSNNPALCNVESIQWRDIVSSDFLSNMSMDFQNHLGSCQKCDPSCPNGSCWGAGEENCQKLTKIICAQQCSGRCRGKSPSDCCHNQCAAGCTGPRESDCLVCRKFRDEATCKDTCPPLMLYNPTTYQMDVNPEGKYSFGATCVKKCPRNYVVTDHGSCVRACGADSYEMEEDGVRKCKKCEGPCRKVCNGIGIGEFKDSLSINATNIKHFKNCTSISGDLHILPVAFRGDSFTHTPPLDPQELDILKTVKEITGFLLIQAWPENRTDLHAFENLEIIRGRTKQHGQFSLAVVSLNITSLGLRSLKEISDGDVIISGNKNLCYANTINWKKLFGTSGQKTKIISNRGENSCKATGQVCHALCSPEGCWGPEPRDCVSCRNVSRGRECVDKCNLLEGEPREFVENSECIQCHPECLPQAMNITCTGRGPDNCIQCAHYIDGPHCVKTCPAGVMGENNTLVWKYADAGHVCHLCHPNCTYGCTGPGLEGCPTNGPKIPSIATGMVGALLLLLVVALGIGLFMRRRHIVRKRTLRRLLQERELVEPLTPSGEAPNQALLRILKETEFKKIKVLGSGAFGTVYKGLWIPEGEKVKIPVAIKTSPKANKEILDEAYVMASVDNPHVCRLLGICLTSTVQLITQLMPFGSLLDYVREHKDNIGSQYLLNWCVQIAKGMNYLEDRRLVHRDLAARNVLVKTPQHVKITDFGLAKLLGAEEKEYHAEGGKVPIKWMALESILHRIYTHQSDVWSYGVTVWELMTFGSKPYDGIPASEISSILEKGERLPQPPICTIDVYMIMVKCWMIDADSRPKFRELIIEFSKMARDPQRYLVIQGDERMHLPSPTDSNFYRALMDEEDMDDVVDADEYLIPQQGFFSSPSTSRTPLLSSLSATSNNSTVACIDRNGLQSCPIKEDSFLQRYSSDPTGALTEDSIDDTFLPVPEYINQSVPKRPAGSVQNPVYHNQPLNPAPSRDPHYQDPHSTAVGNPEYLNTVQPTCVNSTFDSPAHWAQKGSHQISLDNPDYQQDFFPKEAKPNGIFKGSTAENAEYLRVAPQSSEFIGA
Chain of EGFR^L58R/T790M (P00533 25-1210 T790M/L858R): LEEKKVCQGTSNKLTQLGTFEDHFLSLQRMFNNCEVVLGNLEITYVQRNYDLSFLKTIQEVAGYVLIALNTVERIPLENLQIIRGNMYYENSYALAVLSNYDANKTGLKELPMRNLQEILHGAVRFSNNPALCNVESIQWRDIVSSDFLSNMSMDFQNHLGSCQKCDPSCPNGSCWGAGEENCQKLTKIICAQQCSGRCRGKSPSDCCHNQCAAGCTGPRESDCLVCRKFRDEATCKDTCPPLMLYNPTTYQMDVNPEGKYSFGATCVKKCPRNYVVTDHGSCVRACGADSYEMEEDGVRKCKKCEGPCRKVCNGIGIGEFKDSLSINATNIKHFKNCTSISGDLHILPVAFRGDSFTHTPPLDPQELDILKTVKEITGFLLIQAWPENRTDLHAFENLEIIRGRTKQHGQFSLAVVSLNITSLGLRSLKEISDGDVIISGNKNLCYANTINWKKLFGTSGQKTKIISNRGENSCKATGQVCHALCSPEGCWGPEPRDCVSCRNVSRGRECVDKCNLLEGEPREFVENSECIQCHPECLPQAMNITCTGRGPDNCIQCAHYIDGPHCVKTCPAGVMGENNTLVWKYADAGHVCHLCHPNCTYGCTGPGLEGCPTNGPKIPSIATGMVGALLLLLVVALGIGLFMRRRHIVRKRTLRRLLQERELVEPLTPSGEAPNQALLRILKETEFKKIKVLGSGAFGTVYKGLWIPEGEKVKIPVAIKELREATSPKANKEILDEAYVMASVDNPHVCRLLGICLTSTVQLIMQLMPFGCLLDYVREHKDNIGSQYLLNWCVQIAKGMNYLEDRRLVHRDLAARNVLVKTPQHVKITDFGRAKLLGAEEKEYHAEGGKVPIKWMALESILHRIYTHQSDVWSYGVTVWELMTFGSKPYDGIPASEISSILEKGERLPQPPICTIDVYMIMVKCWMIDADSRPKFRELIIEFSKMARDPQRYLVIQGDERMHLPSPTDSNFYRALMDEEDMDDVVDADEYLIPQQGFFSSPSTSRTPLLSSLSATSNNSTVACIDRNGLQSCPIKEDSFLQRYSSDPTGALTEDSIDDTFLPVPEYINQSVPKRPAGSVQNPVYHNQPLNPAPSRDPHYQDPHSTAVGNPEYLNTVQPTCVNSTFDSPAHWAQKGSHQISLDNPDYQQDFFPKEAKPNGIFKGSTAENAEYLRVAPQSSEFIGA
Chain of Ba/F3 EGFR-Del19/T790M (P00533 with tags, fused parts or gaps DEL746-750/T790M, form open): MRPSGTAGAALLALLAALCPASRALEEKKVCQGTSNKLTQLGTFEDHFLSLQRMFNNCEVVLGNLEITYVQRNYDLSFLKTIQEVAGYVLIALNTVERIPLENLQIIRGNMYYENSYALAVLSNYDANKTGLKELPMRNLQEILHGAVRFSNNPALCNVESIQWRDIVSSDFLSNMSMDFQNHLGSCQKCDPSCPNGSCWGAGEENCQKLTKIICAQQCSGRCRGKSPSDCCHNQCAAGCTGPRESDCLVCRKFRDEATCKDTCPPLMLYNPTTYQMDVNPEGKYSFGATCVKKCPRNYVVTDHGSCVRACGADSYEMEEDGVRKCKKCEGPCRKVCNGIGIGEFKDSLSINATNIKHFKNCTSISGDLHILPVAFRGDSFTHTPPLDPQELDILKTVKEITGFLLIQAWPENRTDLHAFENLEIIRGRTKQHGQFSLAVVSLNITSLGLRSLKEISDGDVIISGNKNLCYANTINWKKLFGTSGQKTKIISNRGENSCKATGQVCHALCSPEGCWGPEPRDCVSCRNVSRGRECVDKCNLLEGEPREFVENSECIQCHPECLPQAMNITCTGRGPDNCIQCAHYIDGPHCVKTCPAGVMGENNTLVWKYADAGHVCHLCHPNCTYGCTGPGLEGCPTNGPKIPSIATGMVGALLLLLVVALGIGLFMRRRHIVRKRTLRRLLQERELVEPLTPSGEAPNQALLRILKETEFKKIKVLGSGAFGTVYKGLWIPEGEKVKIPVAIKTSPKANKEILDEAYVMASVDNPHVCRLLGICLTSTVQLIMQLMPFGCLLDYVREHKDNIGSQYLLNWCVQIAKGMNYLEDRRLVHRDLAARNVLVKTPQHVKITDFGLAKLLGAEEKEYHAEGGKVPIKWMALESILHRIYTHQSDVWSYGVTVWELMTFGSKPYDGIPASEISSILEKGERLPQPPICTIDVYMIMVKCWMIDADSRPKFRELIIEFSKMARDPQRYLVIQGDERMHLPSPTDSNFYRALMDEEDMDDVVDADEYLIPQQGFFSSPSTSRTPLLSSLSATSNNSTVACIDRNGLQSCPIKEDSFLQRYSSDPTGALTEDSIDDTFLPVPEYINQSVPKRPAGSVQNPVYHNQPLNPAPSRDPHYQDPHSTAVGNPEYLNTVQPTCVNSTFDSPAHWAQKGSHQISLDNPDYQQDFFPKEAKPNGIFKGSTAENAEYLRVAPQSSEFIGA
Chain of EGFR^L858R (P00533 25-1210 L858R): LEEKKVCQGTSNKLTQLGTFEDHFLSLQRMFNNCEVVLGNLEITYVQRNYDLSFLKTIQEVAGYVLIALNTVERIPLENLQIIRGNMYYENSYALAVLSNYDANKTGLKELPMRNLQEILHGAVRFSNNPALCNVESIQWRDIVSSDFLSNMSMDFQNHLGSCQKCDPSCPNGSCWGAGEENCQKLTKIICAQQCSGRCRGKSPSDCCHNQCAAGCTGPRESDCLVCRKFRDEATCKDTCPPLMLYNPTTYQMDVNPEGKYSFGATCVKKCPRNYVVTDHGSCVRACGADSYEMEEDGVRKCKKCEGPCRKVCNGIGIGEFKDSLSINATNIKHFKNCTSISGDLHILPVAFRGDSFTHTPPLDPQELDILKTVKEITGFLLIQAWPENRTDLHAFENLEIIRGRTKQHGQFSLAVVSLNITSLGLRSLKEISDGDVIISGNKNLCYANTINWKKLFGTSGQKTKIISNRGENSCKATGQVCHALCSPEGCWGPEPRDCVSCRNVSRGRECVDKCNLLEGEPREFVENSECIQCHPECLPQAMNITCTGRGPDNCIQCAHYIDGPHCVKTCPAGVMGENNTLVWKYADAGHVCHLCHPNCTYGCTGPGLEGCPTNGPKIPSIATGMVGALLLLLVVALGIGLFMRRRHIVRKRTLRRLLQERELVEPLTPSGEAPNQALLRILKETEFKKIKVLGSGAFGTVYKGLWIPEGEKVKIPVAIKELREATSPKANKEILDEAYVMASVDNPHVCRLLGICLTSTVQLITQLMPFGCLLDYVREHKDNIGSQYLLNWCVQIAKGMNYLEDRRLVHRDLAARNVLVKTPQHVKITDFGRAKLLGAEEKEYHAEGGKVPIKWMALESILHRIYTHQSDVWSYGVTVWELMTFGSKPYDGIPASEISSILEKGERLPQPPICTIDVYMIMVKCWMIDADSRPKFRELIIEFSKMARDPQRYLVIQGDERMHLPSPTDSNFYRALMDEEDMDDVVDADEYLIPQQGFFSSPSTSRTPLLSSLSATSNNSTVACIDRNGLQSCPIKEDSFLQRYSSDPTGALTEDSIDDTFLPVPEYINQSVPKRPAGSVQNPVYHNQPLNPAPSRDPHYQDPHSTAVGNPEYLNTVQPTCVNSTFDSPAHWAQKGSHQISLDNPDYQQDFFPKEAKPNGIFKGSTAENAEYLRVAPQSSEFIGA

As to `C[C@H]1CCOc2c(cnn2C)-c2nccc(n2)Nc2cc3c(cn2)c(-c2cc(CN(C)C)ccn2)nn31` [(183)], the GI50 at Ba/F3 EGFR-Del19/T790M was 10 to 100 nM; in test [1], less than 10 nM; on Ba/F3 EGFR-Del19/C797S, 10 to 100 nM. The concentration for half-maximal inhibition (IC50) is less than 10 nM at EGFR^L858R, less than 10 nM against EGFR^L858R/T790M/C^797S, less than 10 nM against EGFR^L58R/T790M and 100 to 1000 nM in the test with Ba/F3 Parental.

For `C[C@H]1CCOc2c(cnn2C)-c2nccc(n2)Nc2cc3c(cn2)c(-c2ccc(CN(C)CCF)n2C)nn31` [(184), N-[[5-[(16S)-11,16-dimethyl-13-oxa-2,6,10,11,17,18,22,25-octazapentacyclo[15.5.2.1^3,7.0^8,12.0^20,24]pentacosa-1(22),3,5,7(25),8(12),9,18,20,23-nonaen-19-yl]-1-methyl-pyrrol-2-yl]methyl]-2-fluoro-N-methyl-ethanamine], the GI50 on Ba/F3 EGFR-Del19/T790M is less than 10 nM; in test [1] it was less than 10 nM; on Ba/F3 EGFR-Del19/C797S, 10 to 100 nM. Moreover, the IC50 at EGFR^L858R is less than 10 nM; against EGFR^L858R/T790M/C^797S, less than 10 nM; at EGFR^L58R/T790M, less than 10 nM; with Ba/F3 Parental, 100 to 1000 nM.

In the case of `C[C@H]1CCOc2c(cnn2C)-c2nccc(n2)Nc2cc3c(cn2)c(-c2cc4c(n2C)CCCN(C)C4)nn31` [(185)], the GI50 (at Ba/F3 EGFR-Del19/T790M; in test [1]; on Ba/F3 EGFR-Del19/C797S) was 10 to 100 nM throughout. The IC50 on EGFR^L858R was less than 10 nM; at EGFR^L858R/T790M/C^797S, less than 10 nM; against EGFR^L58R/T790M, less than 10 nM; in the test on Ba/F3 Parental it was 100 to 1000 nM.

Consider `C[C@H]1CCOc2c(cnn2C)-c2nccc(n2)Nc2cc3c(cn2)c(-c2ccc(CN4CC[C@@H](N(C)C)C4)n2C)nn31` [(186)], for which the GI50 (at Ba/F3 EGFR-Del19/T790M; in test [1]; on Ba/F3 EGFR-Del19/C797S) was less than 10 nM each time. Besides, the half-inhibitory concentration (IC50) was less than 10 nM on EGFR^L858R, less than 10 nM on EGFR^L858R/T790M/C^797S, less than 10 nM against EGFR^L58R/T790M and 100 to 1000 nM in the test with Ba/F3 Parental.

For the molecule `C[C@H]1CCOc2c(cnn2C)-c2nccc(n2)Nc2cc3c(cn2)c(-c2ccc(CN4CC[C@H](N(C)C)C4)n2C)nn31` [(187)], the GI50 (on Ba/F3 EGFR-Del19/T790M; in test [1]; on Ba/F3 EGFR-Del19/C797S) was less than 10 nM each time. Further, the half-inhibitory concentration (IC50) is less than 10 nM at EGFR^L858R, less than 10 nM against EGFR^L858R/T790M/C^797S, less than 10 nM against EGFR^L58R/T790M and 100 to 1000 nM in the test with Ba/F3 Parental.

As for `CC(C)NCc1ccc(-c2nn3c4cc(ncc24)Nc2ccnc(n2)-c2cnn(C)c2OCC[C@@H]3C)n1C` [(188)], the GI50 (at Ba/F3 EGFR-Del19/T790M; in test [1]; on Ba/F3 EGFR-Del19/C797S) was less than 10 nM in each case. Further, the IC50 against EGFR^L858R was less than 10 nM; on EGFR^L858R/T790M/C^797S it was less than 10 nM; against EGFR^L58R/T790M it was less than 10 nM; with Ba/F3 Parental it was 100 to 1000 nM.

With `CC(C)N(C)Cc1ccc(-c2nn3c4cc(ncc24)Nc2ccnc(n2)-c2cnn(C)c2OCC[C@@H]3C)n1C` [(189)], the GI50 (at Ba/F3 EGFR-Del19/T790M; in test [1]; on Ba/F3 EGFR-Del19/C797S) was less than 10 nM each time. The 50% inhibitory concentration (IC50) against EGFR^L858R is less than 10 nM; against EGFR^L858R/T790M/C^797S, less than 10 nM; at EGFR^L58R/T790M, less than 10 nM; in the test on Ba/F3 Parental, 100 to 1000 nM.

On to `C[C@H]1CCOc2c(cnn2C)-c2nccc(n2)Nc2cc3c(cn2)c(-c2ccc(CN4CCN(CCCF)CC4)n2C)nn31` [(190)], for which the GI50 (at Ba/F3 EGFR-Del19/T790M; in test [1]; on Ba/F3 EGFR-Del19/C797S) was less than 10 nM in each case. The IC50 was less than 10 nM on EGFR^L858R, less than 10 nM against EGFR^L858R/T790M/C^797S, less than 10 nM on EGFR^L58R/T790M and 100 to 1000 nM with Ba/F3 Parental.

`CCn1c(CN(C)C)ccc1-c1nn2c3cc(ncc13)Nc1ccnc(n1)-c1cnn(C)c1OCC[C@@H]2C` [(191)]: the figures for the GI50 (at Ba/F3 EGFR-Del19/T790M; in test [1]; at Ba/F3 EGFR-Del19/C797S) were 10 to 100 nM, less than 10 nM and less than 10 nM, respectively. Also, the half-inhibitory concentration (IC50) on EGFR^L858R is less than 10 nM; against EGFR^L858R/T790M/C^797S, less than 10 nM; at EGFR^L58R/T790M, less than 10 nM; with Ba/F3 Parental, 100 to 1000 nM.

On to `C[C@H]1CCOc2c(cnn2C)-c2nccc(n2)Nc2cc3c(cn2)c(-c2ccc(CN(C)CCCF)n2C)nn31` [(192)], for which the GI50 (at Ba/F3 EGFR-Del19/T790M; in test [1]; at Ba/F3 EGFR-Del19/C797S) was less than 10 nM each time. Further, the IC50 at EGFR^L858R was less than 10 nM; against EGFR^L858R/T790M/C^797S, less than 10 nM; against EGFR^L58R/T790M, less than 10 nM; in the test on Ba/F3 Parental it was 100 to 1000 nM.

As to `C[C@H]1CCOc2c(cnn2C)-c2nccc(n2)Nc2cc3c(cn2)c(-c2ccc(CN4CCN(CCF)CC4)n2C)nn31` [(193)], the GI50 (at Ba/F3 EGFR-Del19/T790M; in test [1]; on Ba/F3 EGFR-Del19/C797S) was less than 10 nM each time. Also, the half-maximal inhibitory concentration (IC50) against EGFR^L858R is less than 10 nM; against EGFR^L858R/T790M/C^797S, less than 10 nM; against EGFR^L58R/T790M, less than 10 nM; in the test on Ba/F3 Parental, 100 to 1000 nM.

For the origin of these results see patent US20230148005A1, “MACROCYCLIC COMPOUNDS AND USES THEREOF” (THESEUS PHARMACEUTICALS, INC., priority 2020, published 2023).
